The values below come from patent US8735398B2 (Bristol-Myers Squibb Company, priority 2009, dated 2014).

Read-outs that look alike come from different tables or passages of the source.

The assay has as its system HCV 1b genotype. The assay can be described thus: HCV replicon assay (HCV-neo replicon cells, wild-type). The assay is classed as cell-based, Hepatitis C virus. The settings on record: HCV 1b genotype replicon. Summed up:
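Inhibition was tested in replicon-bearing cells, both wild-type HCV-neo and lines with NS5A resistance substitutions, using the O'Boyle et al. 2005 replicon method or luciferase-reporter formats.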

Setting [1] is: Hepatitis C virus, class symbols, read-out: EC50 Range against HCV 1b.
Setting [2] is: class symbols, read-out: EC50 Range against HCV 1b.
[3] abbreviates: Hepatitis C virus, read-out: EC50 1b.

In the case of `COc1cccc2c(C(=O)N[C@@H](C)C(=O)Nc3ccc(-c4nnc(-c5ccc(NC(=O)[C@H](C)NC(=O)c6nc(Cl)cc7c(OC)cccc67)cc5)o4)cc3)nc(Cl)cc12` [RK-33, N,N′-(1,3,4-oxadiazole-2,5-diylbis(4,1-phenyleneimino((2S)-1-oxo-1,2-propanediyl)))bis(3-chloro-5-methoxy-1-isoquinolinecarboxamide)], under setting [1], the EC50 lay in the range of 100 to 999 nM.

Consider `C[C@H](NC(=O)[C@@H]1CCCO1)C(=O)Nc1ccc(-c2nnc(-c3ccc(NC(=O)[C@H](C)NC(=O)[C@@H]4CCCO4)cc3)o2)cc1` [RK-34, (2S,2′S)-N,N′-(1,3,4-oxadiazole-2,5-diylbis(4,1-phenyleneimino((2S)-1-oxo-1,2-propanediyl)))ditetrahydro-2-furancarboxamide], for which, under setting [2], the EC50 was in the range of 1000 to 10000 nM.

Take `C[C@H](NC(=O)[C@H]1CCCO1)C(=O)Nc1ccc(-c2nnc(-c3ccc(NC(=O)[C@H](C)NC(=O)[C@H]4CCCO4)cc3)o2)cc1` [RK-35, (2R,2′R)-N,N′-(1,3,4-oxadiazole-2,5-diylbis(4,1-phenyleneimino((2S)-1-oxo-1,2-propanediyl)))ditetrahydro-2-furancarboxamide]: the EC50 under setting [2] was in the range of 1000 to 10000 nM.

With `C[C@H](NC(=O)c1nc(Cl)cc2ccccc12)C(=O)Nc1ccc(-c2nnc(-c3ccc(NC(=O)[C@H](C)NC(=O)c4nc(Cl)cc5ccccc45)cc3)o2)cc1` [RK-36, N,N′-(1,3,4-oxadiazole-2,5-diylbis(4,1-phenyleneimino((2S)-1-oxo-1,2-propanediyl)))bis(3-chloro-1-isoquinolinecarboxamide)], the EC50 runs as follows: under setting [1], 1000 to 10000 nM; under setting [3], 1000 nM.

With `C[C@H](NC(=O)c1cc(Cl)ccn1)C(=O)Nc1ccc(-c2nnc(-c3ccc(NC(=O)[C@H](C)NC(=O)c4cc(Cl)ccn4)cc3)o2)cc1` [RK-37, N,N′-(1,3,4-oxadiazole-2,5-diylbis(4,1-phenyleneimino((2S)-1-oxo-1,2-propanediyl)))bis(4-chloro-2-pyridinecarboxamide)], the EC50 under setting [1] was in the range of 1000 to 10000 nM.

Consider `C[C@H](NC(=O)[C@H](c1ccccc1)N(C)C)C(=O)Nc1ccc(-c2nnc(-c3ccc(NC(=O)[C@H](C)NC(=O)[C@H](c4ccccc4)N(C)C)cc3)o2)cc1` [RK-38, (2S,2′S)-N,N′-(1,3,4-oxadiazole-2,5-diyldi-4,1-phenylene)bis(2-(((2S)-2-(dimethylamino)-2-phenylacetyl)amino)propanamide)], for which the EC50 is under 4.57 nM under setting [1] and under 5 nM under setting [3].

Consider `CN(C)[C@H](C(=O)N1CCC[C@H]1C(=O)Nc1ccc(-c2nnc(-c3ccc(NC(=O)[C@@H]4CCCN4C(=O)[C@H](c4ccccc4)N(C)C)cc3)o2)cc1)c1ccccc1` [RK-39, (2S,2′S)-N,N′-(1,3,4-oxadiazole-2,5-diyldi-4,1-phenylene)bis(1-((2S)-2-(dimethylamino)-2-phenylacetyl)-2-pyrrolidinecarboxamide)], for which the EC50 was under 4.57 nM under setting [1] and under 5 nM under setting [3].

As for `COc1cc(C(=O)N2CCC[C@H]2C(=O)Nc2ccc(-c3nnc(-c4ccc(NC(=O)[C@@H]5CCCN5C(=O)c5cc(Cl)nc(OC)c5)cc4)o3)cc2)cc(Cl)n1` [RK-40, (2S,2′S)-N,N′-(1,3,4-oxadiazole-2,5-diyldi-4,1-phenylene)bis(1-(2-chloro-6-methoxyisonicotinoyl)-2-pyrrolidinecarboxamide)], the EC50 under setting [1] is 1000 to 10000 nM.

Take `COc1cc(C(=O)N[C@@H](C)C(=O)Nc2ccc(-c3nnc(-c4ccc(NC(=O)[C@H](C)NC(=O)c5cc(Cl)nc(OC)c5)cc4)o3)cc2)cc(Cl)n1` [RK-41, N,N′-(1,3,4-oxadiazole-2,5-diylbis(4,1-phenyleneimino((2S)-1-oxo-1,2-propanediyl)))bis(2-chloro-6-methoxyisonicotinamide)]: under setting [1], the EC50 fell in the range of 1000 to 10000 nM.

Regarding `Cn1cc(C(=O)N2CCC[C@H]2C(=O)Nc2ccc(-c3nnc(-c4ccc(NC(=O)[C@@H]5CCCN5C(=O)c5cn(C)c6ccccc56)cc4)o3)cc2)c2ccccc21` [RK-42, (2S,2′S)-N,N′-(1,3,4-oxadiazole-2,5-diyldi-4,1-phenylene)bis(1-((1-methyl-1H-indol-3-yl)carbonyl)-2-pyrrolidinecarboxamide)], the EC50 under setting [1] lay within 1000 to 10000 nM.

Usually EC50 stands for the concentration at which the effect is half-maximal.
